# Reference: US20090181986A1, “SUBSTITUTED HETEROCYCLIC COMPOUNDS” (priority 2007, published 2009)
# Legend:
# [1] = molecular target: wild-type human cardiac sodium channel, hNav1.5 (Homo sapiens, UniProt Q14524); assay: Late INa screening assay (PatchXpress whole cell patch clamp, late current generated with Tefluthrin or ATX II); format: cell-based; conditions: for Late INa % blk / inhibition at 10 µM: test compound at 10 μM; for inhibition at 10 µM: read-out: Late INa % blk
# Procedure: The late sodium current (Late INa) and peak sodium current (Peak INa) assays are performed on an automated electrophysiology platform, PatchXpress 7000A (MDS Analytical Technologies, Sunnyvale, Calif.), which uses the whole cell patch clump technique to measure currents through the cell membrane of up to 16 cells at a time. The assay uses an HEK293 (human embryonic kidney) cell line heterologously expressing the wild-type human cardiac sodium channel, hNav1.5, purchased from Millipore (Billerica, Mass.). No beta subunits were coexpressed with the Na channel alpha subunit. […] Experiments are carried out at 24-27° C.
# For both the Late INa and Peak INa assays, series resistance compensation is set to 50% and whole-cell compensation is performed automatically. […] Currents through open sodium channels are automatically recorded and stored in the DataXpress2 database (MDS Analytical Technologies, Sunnyvale, Calif.). Analysis is performed using DataXpress2 analysis software and data are compiled in Excel.
# Compound stocks are routinely made in glass vials to 10 mM in dimethyl sulfoxide (DMSO). In some cases, when compounds are not soluble in DMSO, they are made in 100% ethanol. Stocks are sonicated as necessary. The extracellular solution for screening Late INa is composed of: 140 mM NaCl, 4 mM KCl, 1.8 mM CaCl2, 0.75 mM MgCl2, and 5 mM HEPES with pH adjusted to 7.4 using NaOH. The extracellular solution for screening Peak INa is composed of: 20 mM NaCl, 120 mM N-methyl-D glucamine, 4 mM KCl, 1.8 mM CaCl2, 0.75 mM MgCl2, and 5 mM HEPES with pH adjusted to 7.4 using HCl. The intracellular solution used to perfuse the inside of the cells for both the Late INa and Peak INa assays contains: 120 mM CsF, […], 5 mM EGTA, 5 mM HEPES and pH adjusted to 7.4 with CsOH. […] The ONa extracellular solution used at the end of each experiment for the Late INa and Peak INa assays to measure baseline current contains: 140 mM N-methyl-D-glucamine; 4 mM KCl; 1.8 mM CaCl2; 0.75 mM MgCl2; 5 mM HEPES and pH was adjusted to 7.4 with HCl.
# For the Late INa assay, sodium channels are activated every 10 seconds (0.1 Hz) by depolarizing the cell membrane to −20 mV for 250 milliseconds (ms) from a holding potential of −120 mV.
# All compounds are tested to determine their activity in blocking the late sodium current. Late INa current is generated by adding 10 μM Tefluthrin (pyrethroid) to the extracellular solution while recording Na currents. […] For some experiments, 50 nM ATX II (sea anemone toxin), another late INa activator, was used to generate the late component. […] Baseline current in the absence of Na^+ ions is measured at the end of each experiment (after two additions of 0 Na solution—see above) and is used to calculate the percent block by compound.
# hERG potassium channel = hERG potassium channel (Homo sapiens, UniProt Q12809); assay: hERG screening assay (PatchXpress patch clamp, CHO cells)
# hERG potassium channel, sequence (Q12809 whole entry): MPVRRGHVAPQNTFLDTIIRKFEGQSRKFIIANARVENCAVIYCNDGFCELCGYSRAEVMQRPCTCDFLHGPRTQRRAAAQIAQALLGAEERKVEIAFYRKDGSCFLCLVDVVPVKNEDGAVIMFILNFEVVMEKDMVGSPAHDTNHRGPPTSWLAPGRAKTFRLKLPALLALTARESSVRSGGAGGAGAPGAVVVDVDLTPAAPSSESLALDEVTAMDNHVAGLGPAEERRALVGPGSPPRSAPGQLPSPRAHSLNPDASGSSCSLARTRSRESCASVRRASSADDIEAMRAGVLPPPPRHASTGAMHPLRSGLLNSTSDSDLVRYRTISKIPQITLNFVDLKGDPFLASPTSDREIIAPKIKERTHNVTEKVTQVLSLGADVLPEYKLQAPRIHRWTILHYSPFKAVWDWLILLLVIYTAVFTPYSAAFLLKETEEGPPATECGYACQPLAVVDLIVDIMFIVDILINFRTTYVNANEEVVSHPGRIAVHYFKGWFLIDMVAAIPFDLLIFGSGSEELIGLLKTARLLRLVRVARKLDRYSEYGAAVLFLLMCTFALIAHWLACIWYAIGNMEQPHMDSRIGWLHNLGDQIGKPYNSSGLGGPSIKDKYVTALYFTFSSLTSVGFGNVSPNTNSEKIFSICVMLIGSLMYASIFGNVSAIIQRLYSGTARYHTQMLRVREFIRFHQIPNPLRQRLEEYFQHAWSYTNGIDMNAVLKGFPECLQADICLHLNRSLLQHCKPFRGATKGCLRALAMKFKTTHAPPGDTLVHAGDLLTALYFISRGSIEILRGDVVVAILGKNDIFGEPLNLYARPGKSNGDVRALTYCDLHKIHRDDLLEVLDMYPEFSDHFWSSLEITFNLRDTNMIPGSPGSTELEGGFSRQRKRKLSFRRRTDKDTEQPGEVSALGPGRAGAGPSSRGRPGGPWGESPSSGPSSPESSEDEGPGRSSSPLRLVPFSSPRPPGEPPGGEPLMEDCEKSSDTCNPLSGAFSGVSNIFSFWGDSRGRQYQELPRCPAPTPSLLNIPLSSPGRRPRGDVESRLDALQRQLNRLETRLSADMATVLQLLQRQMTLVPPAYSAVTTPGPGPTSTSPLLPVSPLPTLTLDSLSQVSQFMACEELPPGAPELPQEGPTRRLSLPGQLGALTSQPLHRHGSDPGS
# L-type calcium channel = L-type calcium channel activity well-plate assay (IMR-32 cells, Ca-4 dye, FlexStation); format: cell-based, human
# Procedure: Cell Culture: IMR-32 (human neuroblastoma) cells were obtained from The American Type Culture Collection. The cells were maintained in MEM supplemented with 10% fetal bovine serum, 2 mM of L-glutamine, 100 IU/ml of penicillin, 50 μg/ml of streptomycin, 1% of sodium pyruvate, 1% of sodium bicarbonate and 1% of non-essential amino acid. […] Culture medium was changed every two days and cells were recultivated when they reached 70-80% confluent.
# Assay: IMR-32 cells were seeded on a Microtest 96-well Assay Plate (BD FALCON™) at a density of 200,000 cells/well in 200 μl culture medium for overnight. The culture medium was removed, and replaced by 120 μl Ca-4 dye (MDS Analytical Technologies, Sunnyvale, Calif.) in HBSS (1× Hank's Balanced Salt solution plus 20 mM HEPES, pH 7.4) containing 2 mM probenecid. Cells were then incubated for 1 hour at 37° in incubator. Testing compounds were diluted from 5 μM-50 μM in HBSS, and 40 μl were added in cells before assay. […] The inhibition of L-type calcium channel activity by compounds was then calculated.
# wild-type human cardiac sodium channel, hNav1.5, sequence (Q14524 whole entry): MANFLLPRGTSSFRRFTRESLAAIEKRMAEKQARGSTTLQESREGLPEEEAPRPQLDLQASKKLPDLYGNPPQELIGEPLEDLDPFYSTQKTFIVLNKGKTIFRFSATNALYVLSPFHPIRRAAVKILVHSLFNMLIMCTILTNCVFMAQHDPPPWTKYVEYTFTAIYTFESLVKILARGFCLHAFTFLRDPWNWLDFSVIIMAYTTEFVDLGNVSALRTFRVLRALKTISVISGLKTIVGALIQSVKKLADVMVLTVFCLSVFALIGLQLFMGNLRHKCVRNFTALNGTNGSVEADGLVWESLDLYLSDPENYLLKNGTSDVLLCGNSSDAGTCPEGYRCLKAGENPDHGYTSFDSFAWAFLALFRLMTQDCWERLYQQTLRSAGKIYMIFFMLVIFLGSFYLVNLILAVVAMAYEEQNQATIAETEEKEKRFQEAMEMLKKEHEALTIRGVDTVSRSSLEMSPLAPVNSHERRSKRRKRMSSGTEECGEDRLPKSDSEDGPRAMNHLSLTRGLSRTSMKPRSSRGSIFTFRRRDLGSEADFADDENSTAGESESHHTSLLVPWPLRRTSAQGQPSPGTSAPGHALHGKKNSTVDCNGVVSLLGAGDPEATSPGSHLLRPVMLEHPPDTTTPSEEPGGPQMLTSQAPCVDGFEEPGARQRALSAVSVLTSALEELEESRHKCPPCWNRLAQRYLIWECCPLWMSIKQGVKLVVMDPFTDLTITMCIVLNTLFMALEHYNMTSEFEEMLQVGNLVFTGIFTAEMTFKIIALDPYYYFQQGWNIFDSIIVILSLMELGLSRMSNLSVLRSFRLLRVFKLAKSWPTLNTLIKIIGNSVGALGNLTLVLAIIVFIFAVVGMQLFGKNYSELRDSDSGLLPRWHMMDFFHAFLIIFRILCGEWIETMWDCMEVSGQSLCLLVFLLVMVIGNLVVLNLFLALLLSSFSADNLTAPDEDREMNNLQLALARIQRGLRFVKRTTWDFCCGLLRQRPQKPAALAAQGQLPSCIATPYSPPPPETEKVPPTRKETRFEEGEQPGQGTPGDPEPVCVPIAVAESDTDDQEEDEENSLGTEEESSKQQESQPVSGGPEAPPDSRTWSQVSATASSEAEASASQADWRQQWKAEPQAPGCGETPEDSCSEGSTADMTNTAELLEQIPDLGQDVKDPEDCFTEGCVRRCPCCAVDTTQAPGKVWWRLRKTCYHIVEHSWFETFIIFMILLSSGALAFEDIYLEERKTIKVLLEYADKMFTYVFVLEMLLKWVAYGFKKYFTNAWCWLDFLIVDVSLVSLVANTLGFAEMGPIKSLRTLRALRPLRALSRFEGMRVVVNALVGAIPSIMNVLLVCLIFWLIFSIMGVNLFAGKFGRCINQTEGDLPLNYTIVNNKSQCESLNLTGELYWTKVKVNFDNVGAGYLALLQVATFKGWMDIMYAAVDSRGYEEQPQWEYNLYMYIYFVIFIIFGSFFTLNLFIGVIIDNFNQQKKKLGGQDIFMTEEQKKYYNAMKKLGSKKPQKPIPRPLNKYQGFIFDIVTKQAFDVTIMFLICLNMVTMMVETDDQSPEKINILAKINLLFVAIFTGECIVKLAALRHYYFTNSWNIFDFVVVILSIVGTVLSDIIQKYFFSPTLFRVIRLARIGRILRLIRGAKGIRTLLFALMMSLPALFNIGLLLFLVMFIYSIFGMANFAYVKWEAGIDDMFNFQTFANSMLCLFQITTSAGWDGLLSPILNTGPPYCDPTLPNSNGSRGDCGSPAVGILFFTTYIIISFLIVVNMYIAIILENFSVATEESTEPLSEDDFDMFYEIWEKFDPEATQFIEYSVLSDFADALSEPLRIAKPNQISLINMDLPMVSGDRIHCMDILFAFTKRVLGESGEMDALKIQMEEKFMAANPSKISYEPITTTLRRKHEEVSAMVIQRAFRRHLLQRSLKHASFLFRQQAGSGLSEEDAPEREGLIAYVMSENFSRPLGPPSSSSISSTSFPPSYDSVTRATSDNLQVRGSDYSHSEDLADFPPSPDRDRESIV
Compound,inhibition at 10 µM [1],hERG Patch Clamp hERG % blk (1 μM test cmpd) (hERG potassium channel),hERG Patch Clamp hERG % blk (10 μM test cmpd) (hERG potassium channel),also measured
"H-indol-5-yl)phenyl)-5-methyl-4,7-dihydrotetrazolo[1,5-a]pyrimidine-6-carboxylate [PT-505]",,,,Late INa % blk [1]: 69.6%
"CC1=C(C(=O)OCc2ccc(C(F)(F)F)cc2)C(c2cccc3ccccc23)n2nnnc2N1 (stereo not drawn) [PT-051, 4-(trifluoromethyl)benzyl 5-methyl-7-(naphthalen-1-yl)-4,7-dihydrotetrazolo[1,5-a]pyrimidine-6-carboxylate]",16.9%,,,
"COC(=O)C1=C(C)N(CC(=O)O)c2nnnn2C1c1sc2ccccc2c1Br (stereo not drawn) [PT-533, 2-(7-(3-bromobenzo[b]thiopben-2-yl)-6-(methoxycarbonyl)-5-methyltetrazolo[1,5-a]pyrimidin-4(7H)-yl)acetic acid]",,,,Late INa % blk [1]: 12%
"CC1=C(C(=O)O[C@@H](C)c2ccccc2)C(c2cc3ccccc3s2)n2nnnc2N1 (stereo partly drawn) [PT-057, (S)-1-phenylethyl 7-(benzo[b]thiophen-2-yl)-5-methyl-4,7-dihydrotetrazolo[1,5-a]pyrimidine-6-carboxylate]",71%,,,
"CC1=C(C(=O)O[C@@H](C)c2ccccc2)C(c2cc3ccccc3s2)n2nnnc2N1 (stereo partly drawn) [PT-056, (S)-1-phenylethyl 7-(benzo[b]thiophen-2-yl)-5-methyl-4,7-dihydrotetrazolo[1,5-a]pyrimidine-6-carboxylate]",,,,Late INa % blk [1]: 7.8%
"CC1=C(C(=O)OCc2ccccc2)C(c2ccccc2-c2ccc(NS(C)(=O)=O)cc2)n2nnnc2N1 (stereo not drawn) [PT-530, benzyl 5-methyl-7-(4′-(methylsulfonamido)biphenyl-2-yl)-4,7-dihydrotetrazolo[1,5-a]pyrimidine-6-carboxylate]",88.3%,13%,48%,
"CC1=C(C(=O)N2CCC(c3ccc(C(N)=O)cc3)CC2)C(c2cccc3ccccc23)C2=C(CCCC2=O)N1 (stereo not drawn) [PT-287, 4-(1-(2-methyl-4-(naphthalen-1-yl)-5-oxo-1,4,5,6,7,8-hexahydroquinoline-3-carbonyl)piperidin-4-yl)benzamide]",8.6%,,,
"CC1=C(C(=O)OCCc2nnn[nH]2)C(c2cccc3ccccc23)n2nnnc2N1 (stereo not drawn) [PT-247, 2-(1H-tetrazol-5-yl)ethyl 5-methyl-7-(naphthalen-1-yl)-4,7-dihydrotetrazolo[1,5-a]pyrimidine-6-carboxylate]",0.3%,,,
"CC1=C(C(=O)OCc2ccccc2Br)C(c2c(Cl)cccc2Cl)n2nnnc2N1Cc1nnn[nH]1 (stereo not drawn) [PT-532, 2-bromobenzyl 4-((1H-tetrazol-5-yl)methyl)-7-(2,6-dichlorophenyl)-5-methyl-4,7-dihydrotetrazolo[1,5-a]pyrimidine-6-carboxylate]",35.6%,,,
"COC(=O)C1=C(C)N(Cc2nnn[nH]2)c2nnnn2C1c1sc2ccccc2c1Br (stereo not drawn) [PT-534, methyl 4-((1H-tetrazol-5-yl)methyl)-7-(3-bromobenzo[b]thiophen-2-yl)-5-methyl-4,7-dihydrotetrazolo[1,5-a]pyrimidine-6-carboxylate]",18.2%,,,
"COC(=O)c1ccc(C2CCN(C(=O)C3=C(C)NC4=C(C(=O)CCC4)C3c3cccc4ccccc34)CC2)cc1 (stereo not drawn) [PT-535, methyl 4-(1-(2-methyl-4-(naphthalen-1-yl)-5-oxo-1,4,5,6,7,8-hexahydroquinoline-3-carbonyl)piperidin-4-yl)benzoate]",4.2%,,,
"CC1=C(C(=O)OC(C)C)C(c2c[nH]nc2-c2ccc(F)cc2)C(C(=O)OC(C)C)=C(C)N1 [PT-128, diisopropyl 4-(3-(4-fluorophenyl)-1H-pyrazol-4-yl)-2,6-dimethyl-1,4-dihydropyridine-3,5-dicarboxylate]",34.1%,,,
"CC1=C(C(=O)OCc2ccccc2Br)C(c2c(Cl)cccc2Cl)n2nnnc2N1 (stereo not drawn) [PT-531, 2-bromobenzyl 7-(2,6-dichlorophenyl)-5-methyl-4,7-dihydrotetrazolo[1,5-a]pyrimidine-6-carboxylate]",51.2%,,,
"CC1=C(C(=O)O[C@@H](C)c2ccccc2)C(c2cc3ccccc3o2)n2nnnc2N1 (stereo partly drawn) [PT-059, (S)-1-phenylethyl 7-(benzofuran-2-yl)-5-methyl-4,7-dihydrotetrazolo[1,5-a]pyrimidine-6-carboxylate]",,10%,66.5%,Late INa % blk [1]: 57.7%
"CC1=C(C(=O)N2CCN(c3ccccc3)CC2)C(c2ccsc2)C2=C(CCCC2=O)N1 (stereo not drawn) [PT-166, 2-methyl-3-(4-phenylpiperazine-1-carbonyl)-4-(thiophen-3-yl)-4,6,7,8-tetrahydroquinolin-5(1H)-one]",,,,"effect on late sodium current ([1]; late INa assay, compounds tested at 10 μM): potentiated late sodium current"
"CCOC(=O)C1=C(C)NC(C)=C(C(=O)OCC)C1c1cc2ccccc2o1 [PT-122, diethyl 4-(benzofuran-2-yl)-2,6-dimethyl-1,4-dihydropyridine-3,5-dicarboxylate]",,15.5%,55%,CaL Plate Assay % blk (1 μM test cmpd) (L-type calcium channel): 10%; CaL Plate Assay % blk (10 μM test cmpd) (L-type calcium channel): 63%
"2-methyl-1-phenylpropan-2-yl 5-methyl-7-(naphthalen-1-yl)-4,7-dihydrotetrazolo[1,5-a]pyrimidine-6- [PT-264]",,,,Late INa % blk [1]: 53.5%
"COC(=O)C1=C(C)Nc2nnnn2C1c1ccccc1 (stereo not drawn) [PT-514, methyl 5-methyl-7-phenyl-4,7-dihydrotetrazolo[1,5-a]pyrimidine-6-carboxylate]",6%,,,
"CC1=C(C(=O)NCc2ccccc2)C(c2ccsc2)C2=C(CCCC2=O)N1 (stereo not drawn) [PT-178, N-benzyl-2-methyl-5-oxo-4-(thiophen-3-yl)-1,4,5,6,7,8-hexahydroquinoline-3-carboxamide]",,11.5%,30%,CaL Plate Assay % blk (1 μM test cmpd) (L-type calcium channel): 10%; CaL Plate Assay % blk (10 μM test cmpd) (L-type calcium channel): 2%
"N#CC1=C(N)OC2=C(C(=O)CCC2)C1c1ccsc1 (stereo not drawn) [PT-100, 2-amino-5-oxo-4-(thiophen-3-yl)-5,6,7,8-tetrahydro-4H-chromene-3-carbonitrile]",,10%,16.5%,CaL Plate Assay % blk (1 μM test cmpd) (L-type calcium channel): 0%; CaL Plate Assay % blk (10 μM test cmpd) (L-type calcium channel): 0%
"CCOC(=O)C1=C(C)NC(C)=C(C(=O)OCC)C1c1cccs1 [PT-111, diethyl 2,6-dimethyl-4-(thiophen-2-yl)-1,4-dihydropyridine-3,5-dicarboxylate]",,11.5%,48.5%,CaL Plate Assay % blk (1 μM test cmpd) (L-type calcium channel): 75%; CaL Plate Assay % blk (10 μM test cmpd) (L-type calcium channel): 79%
"N#CC1=C(N)OC2=C(C(=O)CC(c3ccccc3)C2)C1c1ccco1 (stereo not drawn) [PT-104, 2-amino-4-(furan-2-yl)-5-oxo-7-phenyl-5,6,7,8-tetrahydro-4H-chromene-3-carbonitrile]",,18%,46%,CaL Plate Assay % blk (1 μM test cmpd) (L-type calcium channel): 0%; CaL Plate Assay % blk (10 μM test cmpd) (L-type calcium channel): 27%
"CC1=C(C(=O)Nc2c(C)cccc2C)C(c2ccsc2)C2=C(CCCC2=O)N1 (stereo not drawn) [PT-180, N-(2,6-dimethylphenyl)-2-methyl-5-oxo-4-(thiophen-3-yl)-1,4,5,6,7,8-hexahydroquinoline-3-carboxamide]",-4.7%,,,
